From ChEMBL document CHEMBL5465560, “Selectivity Literature for EUbOPEN Chemogenomic Library” (2024)
pIC50: −log10 of the molar value.

Experiments:
[1] = target: T1, Cyclin-dependent kinase-like 2 (Homo sapiens) (UniProt Q92772); assay: Selectivity interaction (KinomeScan (DiscoverX)) EUB0000229b CDKL2; settings: at 10 µM
T1 sequence (whole entry): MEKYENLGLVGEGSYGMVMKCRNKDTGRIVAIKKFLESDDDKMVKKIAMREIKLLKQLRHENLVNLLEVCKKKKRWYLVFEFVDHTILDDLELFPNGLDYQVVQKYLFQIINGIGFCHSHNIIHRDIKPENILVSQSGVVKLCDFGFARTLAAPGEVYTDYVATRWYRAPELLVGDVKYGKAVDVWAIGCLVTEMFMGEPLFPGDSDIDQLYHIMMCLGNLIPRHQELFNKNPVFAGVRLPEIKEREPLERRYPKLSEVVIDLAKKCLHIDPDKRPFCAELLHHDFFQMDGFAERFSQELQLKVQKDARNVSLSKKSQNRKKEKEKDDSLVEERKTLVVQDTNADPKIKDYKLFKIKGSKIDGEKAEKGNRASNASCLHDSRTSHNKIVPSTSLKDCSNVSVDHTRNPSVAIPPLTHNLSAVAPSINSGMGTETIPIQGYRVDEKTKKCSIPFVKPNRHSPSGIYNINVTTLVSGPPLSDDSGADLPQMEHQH

[2] = target: Dual specificity tyrosine-phosphorylation-regulated kinase 1A (Homo sapiens, UniProt Q13627); assay: Selectivity interaction (KinomeScan (DiscoverX)) EUB0000229b DYRK1A; settings: at 10 µM
[3] = target: T2, Ephrin type-A receptor 1 (Homo sapiens) (UniProt P21709); assay: Selectivity interaction (KinomeScan (DiscoverX)) EUB0000229b EPHA1; settings: at 10 µM
T2 sequence (whole entry): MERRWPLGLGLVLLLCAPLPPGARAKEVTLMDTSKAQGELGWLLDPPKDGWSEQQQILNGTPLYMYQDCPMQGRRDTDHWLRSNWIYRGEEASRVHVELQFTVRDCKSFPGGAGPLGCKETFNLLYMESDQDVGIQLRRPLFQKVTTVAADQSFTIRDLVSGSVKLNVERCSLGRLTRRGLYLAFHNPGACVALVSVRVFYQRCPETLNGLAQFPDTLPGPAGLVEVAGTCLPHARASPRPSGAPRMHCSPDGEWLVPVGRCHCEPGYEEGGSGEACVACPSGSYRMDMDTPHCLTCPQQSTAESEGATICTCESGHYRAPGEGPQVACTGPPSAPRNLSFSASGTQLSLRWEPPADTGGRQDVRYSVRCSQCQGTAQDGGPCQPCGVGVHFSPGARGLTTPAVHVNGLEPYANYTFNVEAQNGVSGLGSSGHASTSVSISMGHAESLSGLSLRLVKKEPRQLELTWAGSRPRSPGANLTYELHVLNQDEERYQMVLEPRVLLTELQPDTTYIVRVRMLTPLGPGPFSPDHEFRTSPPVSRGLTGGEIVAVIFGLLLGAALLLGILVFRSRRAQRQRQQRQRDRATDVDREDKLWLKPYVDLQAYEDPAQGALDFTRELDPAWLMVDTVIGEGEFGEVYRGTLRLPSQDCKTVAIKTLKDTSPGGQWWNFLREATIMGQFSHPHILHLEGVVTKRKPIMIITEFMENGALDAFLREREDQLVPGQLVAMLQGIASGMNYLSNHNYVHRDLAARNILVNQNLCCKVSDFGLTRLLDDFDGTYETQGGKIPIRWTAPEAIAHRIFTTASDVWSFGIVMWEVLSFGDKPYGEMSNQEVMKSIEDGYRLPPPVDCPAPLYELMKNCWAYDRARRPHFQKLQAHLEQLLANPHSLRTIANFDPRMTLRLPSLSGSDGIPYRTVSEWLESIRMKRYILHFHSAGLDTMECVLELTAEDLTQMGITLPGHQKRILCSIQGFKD

[4] = target: Mitogen-activated protein kinase kinase kinase kinase 1 (Homo sapiens) (UniProt Q92918); assay: Selectivity interaction (KinomeScan (DiscoverX)) EUB0000595a MAP4K1; settings: at 10 µM
[5] = target: Protein arginine N-methyltransferase 5 (Homo sapiens, UniProt O14744); assay: Selectivity interaction (Scintillation proximity assays) EUB0000230b PRMT5
[6] = target: T3, Aurora kinase A (Homo sapiens) (UniProt O14965); assay: Selectivity interaction (KinomeScan (DiscoverX)) EUB0000045b STK6
T3 sequence (whole entry): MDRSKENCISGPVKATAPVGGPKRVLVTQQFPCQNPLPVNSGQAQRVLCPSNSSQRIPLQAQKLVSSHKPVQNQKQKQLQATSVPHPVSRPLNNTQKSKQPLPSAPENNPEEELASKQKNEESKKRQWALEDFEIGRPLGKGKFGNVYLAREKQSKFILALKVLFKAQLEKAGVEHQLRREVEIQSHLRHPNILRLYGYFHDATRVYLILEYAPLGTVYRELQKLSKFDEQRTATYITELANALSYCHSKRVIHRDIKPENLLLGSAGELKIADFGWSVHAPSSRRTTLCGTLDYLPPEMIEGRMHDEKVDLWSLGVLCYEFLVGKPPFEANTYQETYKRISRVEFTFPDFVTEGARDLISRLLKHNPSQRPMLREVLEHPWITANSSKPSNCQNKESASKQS

[7] = target: Mitogen-activated protein kinase 6 (Homo sapiens) (UniProt Q16659); assay: Selectivity interaction (KinomeScan (DiscoverX)) EUB0000695a MAPK6; settings: at 100 nM
[8] = target: Ribosomal protein S6 kinase alpha-4 (Homo sapiens) (UniProt O75676); assay: Selectivity interaction (KinomeScan (DiscoverX)) EUB0001079a RPS6KA4; settings: at 1 µM
[9] = target: Cyclin-dependent kinase 18 (Homo sapiens) (UniProt Q07002); assay: Selectivity interaction (KinomeScan (DiscoverX)) EUB0000666a CDK18; settings: at 10 µM
[10] = target: Serine/threonine-protein kinase 16 (Homo sapiens, UniProt O75716); settings: at 10 µM
[11] = target: CDK9/Cyclin K (Homo sapiens) (UniProt P50750+O75909); assay: (§1) Selectivity interaction (ProQinase) EUB0000171b CDK9; assay type: protein-complex assay
[12] = target: CDK9/cyclin T1 (Homo sapiens) (UniProt O60563+P50750); assay: as §1; assay type: protein-complex assay
[13] = target: Death-associated protein kinase 2 (Homo sapiens) (UniProt Q9UIK4); assay: Selectivity interaction (KinomeScan (DiscoverX)) EUB0001619a DAPK2; settings: at 1 µM
[14] = target: Cyclin-dependent kinase 14 (Homo sapiens) (UniProt O94921); assay: Selectivity interaction (KinomeScan (DiscoverX)) EUB0000618a CDK14; settings: at 10 µM
[15] = target: Ribosomal protein S6 kinase alpha-3 (Homo sapiens, UniProt P51812); assay: Selectivity interaction (ActivX KiNativ screen (kinase selectivity in THP-1 cell lysates)) EUB0000639a RPS6KA3; assay type: subcellular; settings: lysate, at 1 µM
[16] = target: Serine/threonine-protein kinase Chk2 (Homo sapiens) (UniProt O96017); assay: Selectivity interaction (Ambit KINOMEscan and KiNATiv profiling in Jurkat cells) EUB0000090b CHEK2; assay type: cell-based; settings: at 1 µM
Chain of Serine/threonine-protein kinase Chk2 (Homo sapiens) (O96017 whole entry): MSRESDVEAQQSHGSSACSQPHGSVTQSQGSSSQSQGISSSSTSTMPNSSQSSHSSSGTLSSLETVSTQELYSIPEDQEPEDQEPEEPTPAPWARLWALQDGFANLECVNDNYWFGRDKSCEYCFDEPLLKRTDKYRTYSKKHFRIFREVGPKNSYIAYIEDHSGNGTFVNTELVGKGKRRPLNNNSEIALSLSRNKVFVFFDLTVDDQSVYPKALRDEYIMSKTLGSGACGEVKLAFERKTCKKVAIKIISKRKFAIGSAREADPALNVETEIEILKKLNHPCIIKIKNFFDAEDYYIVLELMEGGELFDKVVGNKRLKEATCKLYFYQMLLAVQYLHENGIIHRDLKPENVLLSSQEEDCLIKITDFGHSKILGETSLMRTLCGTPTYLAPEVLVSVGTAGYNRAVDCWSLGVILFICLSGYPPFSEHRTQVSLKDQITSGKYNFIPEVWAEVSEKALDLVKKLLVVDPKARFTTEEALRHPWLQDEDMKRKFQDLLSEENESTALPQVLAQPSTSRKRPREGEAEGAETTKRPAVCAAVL

Chain of Serine/threonine-protein kinase 16 (O75716 whole entry): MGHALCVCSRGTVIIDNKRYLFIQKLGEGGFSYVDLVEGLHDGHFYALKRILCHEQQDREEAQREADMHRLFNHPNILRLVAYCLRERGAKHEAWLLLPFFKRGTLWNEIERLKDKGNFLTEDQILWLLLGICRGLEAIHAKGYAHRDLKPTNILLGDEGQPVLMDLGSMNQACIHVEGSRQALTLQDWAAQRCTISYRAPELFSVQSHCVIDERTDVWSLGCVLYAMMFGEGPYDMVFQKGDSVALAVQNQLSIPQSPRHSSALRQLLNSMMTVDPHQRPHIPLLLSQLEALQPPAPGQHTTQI
Chain of Mitogen-activated protein kinase 6 (Homo sapiens) (Q16659 whole entry): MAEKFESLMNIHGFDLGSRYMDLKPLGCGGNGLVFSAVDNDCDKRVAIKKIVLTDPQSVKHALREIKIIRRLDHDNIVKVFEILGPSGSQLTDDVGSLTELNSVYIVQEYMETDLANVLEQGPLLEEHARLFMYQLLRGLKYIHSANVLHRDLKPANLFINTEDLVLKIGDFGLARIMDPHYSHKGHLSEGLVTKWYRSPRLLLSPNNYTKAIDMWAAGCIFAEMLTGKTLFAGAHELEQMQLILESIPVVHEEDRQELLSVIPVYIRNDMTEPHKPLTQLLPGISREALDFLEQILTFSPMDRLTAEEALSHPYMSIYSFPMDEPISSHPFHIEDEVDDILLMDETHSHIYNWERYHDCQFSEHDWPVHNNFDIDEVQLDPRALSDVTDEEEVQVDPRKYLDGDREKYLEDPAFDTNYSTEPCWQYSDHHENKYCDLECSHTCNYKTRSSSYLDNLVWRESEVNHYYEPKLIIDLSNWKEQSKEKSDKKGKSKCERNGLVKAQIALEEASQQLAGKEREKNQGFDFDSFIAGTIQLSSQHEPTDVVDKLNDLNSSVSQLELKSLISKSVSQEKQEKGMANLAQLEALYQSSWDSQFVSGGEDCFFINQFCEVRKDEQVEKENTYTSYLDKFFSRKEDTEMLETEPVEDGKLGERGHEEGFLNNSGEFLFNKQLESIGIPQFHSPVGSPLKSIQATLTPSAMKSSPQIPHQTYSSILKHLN
Chain of Protein arginine N-methyltransferase 5 (O14744 whole entry): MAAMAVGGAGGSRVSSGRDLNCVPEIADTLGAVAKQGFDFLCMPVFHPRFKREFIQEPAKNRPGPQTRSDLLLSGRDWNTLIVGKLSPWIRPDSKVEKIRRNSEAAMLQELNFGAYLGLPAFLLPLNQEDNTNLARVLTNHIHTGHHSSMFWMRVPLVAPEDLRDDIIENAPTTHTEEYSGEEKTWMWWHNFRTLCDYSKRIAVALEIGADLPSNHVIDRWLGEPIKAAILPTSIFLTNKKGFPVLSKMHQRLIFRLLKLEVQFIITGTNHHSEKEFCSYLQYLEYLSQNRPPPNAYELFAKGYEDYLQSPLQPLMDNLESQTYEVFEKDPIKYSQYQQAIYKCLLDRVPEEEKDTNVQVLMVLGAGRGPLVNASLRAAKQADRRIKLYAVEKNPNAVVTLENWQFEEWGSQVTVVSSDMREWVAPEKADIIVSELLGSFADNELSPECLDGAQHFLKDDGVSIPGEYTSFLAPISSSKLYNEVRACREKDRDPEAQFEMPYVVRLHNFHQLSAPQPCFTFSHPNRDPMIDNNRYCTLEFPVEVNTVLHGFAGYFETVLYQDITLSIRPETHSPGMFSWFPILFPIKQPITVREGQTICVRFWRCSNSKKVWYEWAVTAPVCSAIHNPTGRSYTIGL
Chain of Death-associated protein kinase 2 (Homo sapiens) (Q9UIK4 whole entry, looked up): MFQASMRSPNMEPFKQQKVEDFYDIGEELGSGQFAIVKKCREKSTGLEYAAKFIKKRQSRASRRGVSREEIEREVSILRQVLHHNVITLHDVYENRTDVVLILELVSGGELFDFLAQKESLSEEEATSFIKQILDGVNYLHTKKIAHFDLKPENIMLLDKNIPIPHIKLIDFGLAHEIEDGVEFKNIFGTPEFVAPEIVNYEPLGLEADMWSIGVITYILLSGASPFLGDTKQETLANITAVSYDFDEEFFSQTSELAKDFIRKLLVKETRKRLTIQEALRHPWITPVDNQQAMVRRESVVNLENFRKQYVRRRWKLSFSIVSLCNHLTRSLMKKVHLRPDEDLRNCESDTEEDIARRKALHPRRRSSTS
Chain of Ribosomal protein S6 kinase alpha-3 (P51812 whole entry): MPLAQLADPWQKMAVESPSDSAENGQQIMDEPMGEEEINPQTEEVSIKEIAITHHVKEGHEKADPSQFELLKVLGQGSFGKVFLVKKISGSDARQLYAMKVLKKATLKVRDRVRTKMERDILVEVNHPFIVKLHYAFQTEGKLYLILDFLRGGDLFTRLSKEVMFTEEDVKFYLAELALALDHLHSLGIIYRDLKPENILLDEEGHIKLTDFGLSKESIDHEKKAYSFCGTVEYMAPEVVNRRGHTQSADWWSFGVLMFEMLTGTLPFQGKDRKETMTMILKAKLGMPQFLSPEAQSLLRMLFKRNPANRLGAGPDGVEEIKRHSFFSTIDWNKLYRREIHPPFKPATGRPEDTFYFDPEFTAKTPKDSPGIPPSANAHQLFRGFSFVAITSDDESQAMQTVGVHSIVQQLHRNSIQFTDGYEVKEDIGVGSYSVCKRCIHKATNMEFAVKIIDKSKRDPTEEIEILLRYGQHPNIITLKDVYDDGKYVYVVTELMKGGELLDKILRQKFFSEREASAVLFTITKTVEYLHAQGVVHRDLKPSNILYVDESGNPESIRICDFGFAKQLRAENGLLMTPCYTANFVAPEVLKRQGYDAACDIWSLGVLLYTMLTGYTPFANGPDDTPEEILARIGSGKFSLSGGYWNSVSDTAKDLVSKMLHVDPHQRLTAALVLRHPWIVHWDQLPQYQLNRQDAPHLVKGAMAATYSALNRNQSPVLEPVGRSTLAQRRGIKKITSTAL
Chain of Cyclin-dependent kinase 18 (Homo sapiens) (Q07002 whole entry): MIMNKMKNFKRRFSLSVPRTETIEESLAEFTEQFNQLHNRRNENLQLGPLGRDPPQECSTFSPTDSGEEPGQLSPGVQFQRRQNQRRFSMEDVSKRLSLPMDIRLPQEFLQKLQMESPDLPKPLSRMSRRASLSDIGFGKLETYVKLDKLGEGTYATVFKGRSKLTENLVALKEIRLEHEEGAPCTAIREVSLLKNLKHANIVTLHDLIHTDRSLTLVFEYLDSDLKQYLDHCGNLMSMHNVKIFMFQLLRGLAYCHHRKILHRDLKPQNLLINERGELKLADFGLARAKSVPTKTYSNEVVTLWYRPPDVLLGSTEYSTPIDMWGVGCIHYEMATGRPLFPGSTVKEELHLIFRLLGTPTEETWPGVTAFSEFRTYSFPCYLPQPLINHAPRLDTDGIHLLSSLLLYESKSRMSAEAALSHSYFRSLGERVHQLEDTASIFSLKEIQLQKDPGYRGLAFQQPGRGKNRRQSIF
Chain of Mitogen-activated protein kinase kinase kinase kinase 1 (Homo sapiens) (Q92918 whole entry, looked up): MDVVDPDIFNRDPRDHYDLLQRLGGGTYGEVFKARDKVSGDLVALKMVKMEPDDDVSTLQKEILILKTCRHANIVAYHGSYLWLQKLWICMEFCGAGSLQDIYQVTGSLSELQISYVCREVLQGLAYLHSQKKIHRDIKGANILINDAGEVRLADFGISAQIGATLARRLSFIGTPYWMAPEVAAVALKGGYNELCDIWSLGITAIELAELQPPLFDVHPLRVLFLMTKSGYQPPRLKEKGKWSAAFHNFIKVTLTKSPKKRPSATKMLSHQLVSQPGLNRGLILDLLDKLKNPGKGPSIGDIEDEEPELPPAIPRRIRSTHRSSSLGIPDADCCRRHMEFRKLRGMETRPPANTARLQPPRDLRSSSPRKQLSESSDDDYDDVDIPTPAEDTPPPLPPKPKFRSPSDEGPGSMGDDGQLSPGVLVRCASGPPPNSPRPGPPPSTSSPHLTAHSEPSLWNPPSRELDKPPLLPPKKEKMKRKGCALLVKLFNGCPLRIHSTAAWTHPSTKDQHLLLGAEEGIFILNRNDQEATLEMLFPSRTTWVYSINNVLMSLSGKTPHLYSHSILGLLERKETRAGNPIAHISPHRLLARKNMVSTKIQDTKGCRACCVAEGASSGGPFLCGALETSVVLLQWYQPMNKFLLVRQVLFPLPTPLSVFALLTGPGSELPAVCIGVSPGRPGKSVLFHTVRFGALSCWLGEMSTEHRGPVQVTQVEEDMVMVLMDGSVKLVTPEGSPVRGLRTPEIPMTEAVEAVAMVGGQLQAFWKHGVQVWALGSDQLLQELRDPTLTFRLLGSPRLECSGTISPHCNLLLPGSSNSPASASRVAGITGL

`COc1cc(N(C)c2ccnc3ccc(C(F)(F)F)cc23)cc(OC)c1OC` showed a % binding [1] of 90%, a % binding [2] of 65% and a % binding [3] of 90%.

For `COCC(=O)NC/C=C/c1ccc2ncnc(Nc3ccc(Oc4ccc(C)nc4)c(C)c3)c2c1` [CP-724714], the % of control [4] was 91%.

With `CNCCN1CCC(c2cc(CN(C)C(=O)c3cccc(Oc4ccccc4)c3)ccn2)CC1` the pIC50 [5] was under 5.00.

In the case of `C=CC(=O)Nc1cc(-n2c(=O)ccc3cnc4ccc(-c5ccc(NS(C)(=O)=O)cc5)cc4c32)ccc1C`, the % of control ([6]; at 1 µM) was 75% and the % of control ([6]; at 10 µM) was 100%.

With `Cc1cc(F)c(C(=O)Nc2cccc(-c3nncn3C(C)C)n2)cc1-n1cnc(C2CC2)c1` the % of control [7] was 81%.

Compound `Nc1cnc(N2CCc3cc(S(=O)(=O)Nc4c(F)cc(Cl)cc4F)cc(N4CCCC4=O)c32)nc1` [TP-020n] has a % of control [8] of 100%.

`O=C(NOC[C@H](O)CO)c1ccc(F)c(F)c1Nc1ccc(I)cc1F` was tested, and the % of control [9] was 100%.

Compound `Cc1cc([C@@H](C)Nc2ccccc2C(=O)O)c2nc(N3CCOCC3)cc(=O)n2c1` [AZD-6482] has a % of control [10] of 77%.

With `C=CC(=O)Nc1cccc(C(=O)Nc2ccc(Nc3cc(-c4[nH]c(SC)nc4C)ccn3)cc2)c1` the % of control ([11]; at 1 µM) was 85%, the % of control ([11]; at 5 µM) was 39% and the % of control ([12]; at 1 µM) was 63%. It also gave a % of control ([12]; at 5 µM) of 38%.

Compound `N#Cc1cccc(-c2c[nH]c3ncnc(N4CCOCC4)c23)c1` has a % of control [13] of 100%.

`O[C@H]1CC[C@H](Nc2ncc3nc(Nc4c(F)cc(F)cc4F)n([C@H]4CCOC4)c3n2)CC1` was tested, and the % of control [14] was 100%.

For `CC[C@@H]1[C@H](F)C(=O)N[C@@H]1COc1nccc2cc(C(N)=O)c(OC)cc12` [ZIMLOVISERTIB], the % of inhibition [15] was 0.1%.

With `CN(C)C/C=C/C(=O)Nc1ccc(C(=O)N2CCCC(Nc3ncc(Cl)c(-c4c[nH]c5ccccc45)n3)C2)cc1` (centres undefined) the % of control [16] was 81%.
